Data on 7 molecules can be found in patent US6809107B1, “Neurotrophic pyrrolidines and piperidines, and related compositions and methods” (Ortho-McNeil Pharmaceutical, Inc., priority 1999, dated 2004).

pIC50: −log10 of the molar value.

The subject of data set [1] is Human M17 Neuroblastoma Cells. Put plainly: Neurite outgrowth assay in human M17 neuroblastoma cells. The settings on record: MAP-2 immunofluorescence, active if greater than mean DMSO-treated control. It is filed as cell-based. The procedure:
M17 human neuroblastoma cells are cultured in 1:1 ratio of EMEM and Ham's F12 with 1×NEM and 10% FBS. The culture media contains 1×PSN antibiotic and is exchanged every other day, and the cells are passed in log phase near confluence.
(§1) Cultures are incubated with normal horse serum (1:50; Vector Labs) for about 20 min, rinsed and then incubated with primary antibody, microtubule associated-protein 2 (anti-mouse MAP-2; 1:1000; Chemicon) for about 2 h at about RT. Following primary antibody, cultures are rinsed and incubated with fluorescein anti-mouse IgG (rat absorbed; 1:50; Vector Labs) for about 1 h. After fluorescein incubation, the cultures are rinsed and read in PBS on a fluorescent plate reader (excitation: 485 nm; emission: 530 nm). […] The response to test compound is reported as percent of DMSO-treated control.

Data set [2] concerns the target T1, α-4,β-2 nicotinic acetycholine receptor (α4β2nAChR) (Rattus norvegicus, UniProt P09483+P12390).
T1 construct: crude synaptic membrane preparations from rat cerebral cortex, striatum and hippocampus; from tissue; host or cells: rat cerebral cortex, striatum and hippocampus (crude synaptic membranes, P2 fraction)
Put plainly: Nicotinic acetylcholine receptor binding assay (3H-cytisine). The procedure:
Binding of ^3H-cytisine to neuronal nicotinic acetylcholine receptors is accomplished using crude synaptic membrane preparations from rat cerebral cortex, striatum and hippocampus. Either fresh or frozen membranes are homogenized in 50 volumes of 10 mM HEPES (N-2-hydroxyethylpiperazine-N′-2-ethanesulfonic acid, pH 7.4) and centrifuged at 42,000 g. The P2 fraction is resuspended in 40 volumes of 10 mM HEPES and centrifuged at 42,000 g. This step is repeated and the P2fraction was resuspended in 25 volumes (e.g., 1 g of tissue into 25 mL) of a medium comprised of Na^+-HEPES buffer (10 mM, pH 7.4), 5 mM MgCl2, 0.01% powdered bovine serum albumin (BSA) and 100 mM NaCl. […] The binding reaction is terminated by filtration using a Brandel Cell Harvester; the amount of bound ^3H-cytisine for each sample is quantitated using a Wallac LKB 1205 Betaplate liquid scintillation counter. […] Nonspecific binding is determined using 10 μM (+)-epibatidine to block all binding of ^3H-cytisine to the α-4,β-2 nicotinic acetycholine receptor (α4β2nAChR). The activity of each test compound is calculated as follows: after correcting for nonspecific binding, the percent inhibition of specific binding (total binding minus nonspecific) is calculated. […] The IC50 values are calculated by performing a nonlinear regression analysis of the data using a standard regression program.

In data set [3] the test system is Dorsal Root Ganglion (DRG). Put plainly: Dorsal Root Ganglion (DRG) culture, neurite outgrowth. The settings on record: neurite outgrowth from DRG, test compound 50-250 nM, days 1-5; positive if neurites of ≧1 diameter of the DRG; one symbol per experiment. Further details: key: + = Positive results for each experiment; − = Negative results for each experiment. The data set is classed as cell-based, rat. On the procedure: Dorsal Root Ganglion (DRG) Culture
DRG are dissected from newborn or 1-day-old CD rats and placed into PBS on ice. After rinsing twice with sterile plating medium, DRG are transferred to empty wells of a 6-well plate coated with polyomithine/laminin (Becton Dickinson Labware) using #7 curved forceps. Three ml/well of plating medium are then added very gently, so as not to disturb the DRG. Plating medium is Leibovitz's L-15 medium (Gibco), plus 0.6% glucose, 33 mM KCl, 10% FCS, 10 mM Hepes and penicillin/streptomycin/glutamine. After overnight incubation at about 37° C. in 5% CO2, this medium is replaced with 3 mL/well of assay medium [Leibovitz's L-15 medium plus 0.6% glucose, 1% FCS, 1% N-2 supplement (Gibco), 10 μM ara-C, 10 mM Hepes, and penicillin/streptomycin/glutamine] containing either vehicle (DMSO, 1/200,000), positive control (2-4 ng/mL NGF) or test compound (50-250 nM). All media are prepared fresh daily. DRG are microscopically examined for neurite outgrowth on days 1-5.

Data set [4] concerns Long-Evans rats, compressed facial nerve. Put plainly: Rat facial nerve compression model. It is filed as in vivo. Conditions: p.o. about 20 mg/kg twice a day for 15 days after surgery; compared to vehicle and internal control; FIG. 1. The procedure: In this model, compressing the facial nerve causes paralysis of the whisker muscle on that side of the face. The untreated facial nerve on the other side functions as an internal control. […] The whisker movement recovery rate on the paralyzed side compared to the vehicle and internal control is shown in this FIGURE.
Long-Evans rats are anesthetized under ketamine (60 mg/kg)/xylazine (6mg/kg). The facial nerve is exposed and mechanically compressed with forceps near the stylomastoid foramen unilaterally with the opposite, non-lesioned side serving as an internal control. […] Rats received test compound p.o. at about 20 mg/kg twice a day for 15 days after the surgery. Control rats received vehicle only. Three to eight rats are tested in each group. Restoration of whisker movement after the treatment with compounds of the present invention is recorded at different post-operative time points daily, up to two weeks, and is shown in FIG. 1.

The subject of data set [5] is Primary Rat Hippocampal Cells. The data set can be described thus: Neurite outgrowth assay in primary rat hippocampal cells. It is filed as cell-based. Conditions: MAP-2 immunofluorescence, active if greater than mean DMSO-treated control. The procedure: Hippocampal cells are dissected from the brains of embryonic day 18 rat pups and dissociated with trypsin (1 mg/mL) and trituration. Cells are seeded at 30,000 cells/well in 96-well plates filled with 100 μL MEM and 10% FBS. At 7 days in culture, cells are fixed with 4% paraformaldehyde and immuno-fluorescence is performed.
as §1

T1 sequence (P09483 31-630): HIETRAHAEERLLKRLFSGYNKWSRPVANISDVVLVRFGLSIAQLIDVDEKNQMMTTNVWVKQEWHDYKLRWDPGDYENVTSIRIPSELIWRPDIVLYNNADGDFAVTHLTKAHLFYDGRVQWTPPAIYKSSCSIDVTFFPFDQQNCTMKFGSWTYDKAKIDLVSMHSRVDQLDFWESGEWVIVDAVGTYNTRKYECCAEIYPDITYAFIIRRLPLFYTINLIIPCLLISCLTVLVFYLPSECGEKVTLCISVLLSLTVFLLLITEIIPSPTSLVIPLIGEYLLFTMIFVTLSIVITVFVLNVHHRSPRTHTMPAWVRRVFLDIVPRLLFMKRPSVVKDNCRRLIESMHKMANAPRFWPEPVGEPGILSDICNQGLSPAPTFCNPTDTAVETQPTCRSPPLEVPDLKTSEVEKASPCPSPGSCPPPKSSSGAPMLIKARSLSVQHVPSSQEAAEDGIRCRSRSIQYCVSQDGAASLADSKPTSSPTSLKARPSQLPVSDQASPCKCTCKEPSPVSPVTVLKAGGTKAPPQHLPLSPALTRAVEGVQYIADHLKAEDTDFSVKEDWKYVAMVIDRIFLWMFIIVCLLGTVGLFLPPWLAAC
T1 sequence (P12390 25-500): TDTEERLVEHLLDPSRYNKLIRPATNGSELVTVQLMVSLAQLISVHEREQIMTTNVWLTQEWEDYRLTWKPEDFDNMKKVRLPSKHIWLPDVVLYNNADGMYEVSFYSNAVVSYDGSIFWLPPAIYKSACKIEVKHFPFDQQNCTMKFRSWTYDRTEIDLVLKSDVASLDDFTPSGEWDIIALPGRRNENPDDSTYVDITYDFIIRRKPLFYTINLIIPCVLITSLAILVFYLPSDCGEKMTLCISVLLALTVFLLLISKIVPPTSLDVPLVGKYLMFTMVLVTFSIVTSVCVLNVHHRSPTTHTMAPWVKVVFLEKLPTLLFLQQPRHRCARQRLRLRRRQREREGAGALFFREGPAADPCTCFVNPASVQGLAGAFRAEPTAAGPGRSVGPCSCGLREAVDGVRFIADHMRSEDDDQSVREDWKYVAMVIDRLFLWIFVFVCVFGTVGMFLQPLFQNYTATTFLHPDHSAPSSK

With `CCC(C)(C)C(=O)C(=O)N1CCC[C@H]1c1nc(COc2cccnc2)cs1` [Compound 19], the “M17 Cell Response” value in data set [1] is 110% of DMSO-treated control.

For orientation: pIC50 means −log10 of the IC50, conventionally taken in molar units. `c1cncc(OCc2ncoc2[C@@H]2CCCN2)c1` [Compound 6] gave a negative-log IC50 (pIC50) in data set [2] of 6.10.

For `CCC(C)(C)C(=O)C(=O)N1CCC[C@H]1C(=O)NNC(=O)[C@@H]1CCCN1C(=O)C(=O)C(C)(C)CC` [Compound 24], the DRG entry in data set [3] was “+ and −”.

On to `c1cncc(OCc2csc([C@@H]3CCCN3)n2)c1` [Compound 17], for which the pIC50 in data set [2] is 7.20.

By melting point is commonly meant the temperature, or range, at which the solid turns liquid. As to `CCC(C)(C)C(=O)C(=O)N1CCCC1c1nnc([C@@H]2CCCN2C(=O)C(=O)C(C)(C)CC)o1` (some centres unmarked) [Compound 30], the melting point fell in the range of 123 to 124 °C. Also, the “Restoration of whisker movement on the paralyzed side” value in data set [4] was “restored more rapidly”.

In the case of `CCC(C)(C)C(=O)C(=O)N1CCC[C@@H]1C(=O)NNC(=O)[C@H]1CCCN1C(=O)C(=O)C(C)(C)CC` [Compound 63], the “Rat Hippocampal Cell Response” value in data set [5] is 110% of DMSO-treated control.

`O=C(C(=O)N1CCCC1c1nnc([C@@H]2CCCN2C(=O)C(=O)C2CCCCC2)o1)C1CCCCC1` (some centres unmarked) [Compound 49] gave a melting point of 132 to 133 °C.
